In US8106055B2, “Substituted amide compounds” (Gruenenthal GmbH, priority 2007, dated 2012):

What was measured:
human μ opiate receptor = target: T1, human μ opiate receptor (Homo sapiens, UniProt P35372); assay: Affinity for the human μ opiate receptor ([3H]-naloxone displacement, CHO-K1 receptor membrane preparation, SPA); format: binding; conditions: test concentration of 1 μM
T1 construct: purchased PerkinElmer Life Sciences, Zaventem, Belgium RB-HOM; host or cells: CHO-K1 cells (membrane preparation)
T1 sequence (P35372 whole entry): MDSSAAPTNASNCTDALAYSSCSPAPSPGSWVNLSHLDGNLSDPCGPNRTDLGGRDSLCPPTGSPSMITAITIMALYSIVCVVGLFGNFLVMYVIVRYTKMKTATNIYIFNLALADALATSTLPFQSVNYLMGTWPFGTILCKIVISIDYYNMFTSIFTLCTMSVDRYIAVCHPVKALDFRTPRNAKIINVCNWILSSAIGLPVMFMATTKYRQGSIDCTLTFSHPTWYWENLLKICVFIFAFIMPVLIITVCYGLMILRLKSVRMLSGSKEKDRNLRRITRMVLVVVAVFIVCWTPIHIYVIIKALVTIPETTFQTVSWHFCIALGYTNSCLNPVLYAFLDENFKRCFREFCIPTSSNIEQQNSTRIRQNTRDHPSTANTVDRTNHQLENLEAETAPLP
Outline: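 Scintillation proximity binding on human μ receptor membranes from CHO-K1 cells used 1 nmol/l [3H]-naloxone over 90 min at room temperature in 50 mmol/l Tris-HCl, 0.06% BSA. Percent inhibition was recorded at 1 μM.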

[1] = target: T2, serotonin (5-HT) reuptake (Rattus norvegicus, UniProt P31652); assay: Inhibition of serotonin (5HT) reuptake in synaptosomes from rat brain; format: biochemical; conditions: test concentration of 10 μM
T2 construct: synaptosomes are freshly isolated from areas of the rat brain; from tissue; host or cells: rat brain synaptosomes (P2 fraction)
T2 sequence (P31652 whole entry): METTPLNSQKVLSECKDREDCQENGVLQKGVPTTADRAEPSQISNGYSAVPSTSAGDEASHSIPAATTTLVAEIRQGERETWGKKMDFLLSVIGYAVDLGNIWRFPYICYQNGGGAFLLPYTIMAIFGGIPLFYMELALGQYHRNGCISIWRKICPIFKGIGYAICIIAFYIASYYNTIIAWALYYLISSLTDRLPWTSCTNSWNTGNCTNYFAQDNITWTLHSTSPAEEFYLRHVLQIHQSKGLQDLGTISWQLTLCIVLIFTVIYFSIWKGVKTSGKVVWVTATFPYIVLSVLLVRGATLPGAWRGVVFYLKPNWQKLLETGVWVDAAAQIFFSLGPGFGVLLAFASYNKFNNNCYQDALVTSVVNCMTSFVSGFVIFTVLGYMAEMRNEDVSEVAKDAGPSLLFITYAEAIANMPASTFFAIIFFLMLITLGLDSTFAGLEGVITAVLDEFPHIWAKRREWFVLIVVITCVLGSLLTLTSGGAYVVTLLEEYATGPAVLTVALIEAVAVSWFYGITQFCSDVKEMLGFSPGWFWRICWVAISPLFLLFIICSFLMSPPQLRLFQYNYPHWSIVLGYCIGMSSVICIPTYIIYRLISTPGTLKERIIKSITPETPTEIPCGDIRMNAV
Outline: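 Freshly isolated rat brain synaptosomes (P2 fraction) used for 5-HT reuptake. Test compound at 10 μM, activity given as % inhibition.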

Structure (SMILES)	μ (binding on the μ opioid receptor, % inhibition) (human μ opiate receptor) [%]	5-HT (inhibition of reuptake of serotonin, % inhibition) [1] [%]
COc1ccc(S(=O)(=O)N2CCCC2COCC(=O)NCCC2CCC(C(c3ccc(F)cc3)N(C)C)CC2)cc1 (centres unmarked) [Example 409]	54	97
CN(C)C(c1ccc(Cl)cc1)C1CCC(CCNC(=O)COC2CCCCC2N(C)S(=O)(=O)c2ccc(Cl)c(Cl)c2)CC1 (centres unmarked) [Example 410]	50	78
CN(C)C(c1ccc(Cl)cc1)C1CCC(CNC(=O)COCCN(C)S(=O)(=O)c2ccc(OC(F)(F)F)cc2)CC1 (centres unmarked) [Example 411]	60	91
COc1cc(C)c(S(=O)(=O)N2CCC(OCC(=O)NCCC3CCC(C(c4ccc(Cl)cc4)N(C)C)CC3)C2)c(C)c1C (centres unmarked) [Example 412]	50	95
CCN(CCOCC(=O)NCCC1CCC(C(c2ccc(F)cc2)N(C)C)CC1)S(=O)(=O)c1c(C)cc(OC)c(C)c1C (centres unmarked) [Example 413]	55	96
COc1cc(C)c(S(=O)(=O)N(CCOCC(=O)NCC2CCC(C(c3cccc(F)c3)N(C)C)CC2)Cc2ccccc2)c(C)c1C (centres unmarked) [Example 414]	64	67
CN(C)C(CCc1ccccc1)C1CCC(CNC(=O)COCC2CCCN2S(=O)(=O)c2ccc(Cl)c(Cl)c2)CC1 (centres unmarked) [Example 415]	55	88
Cc1cc(C)c(S(=O)(=O)N(C)CCOCC(=O)NCCC2CCC(C(c3ccc(Cl)cc3)N(C)C)CC2)c(C)c1 (centres unmarked) [Example 416]	53	103
COc1cc(C)c(S(=O)(=O)N2CCCC(OCC(=O)NCC3CCC(C(c4ccc(F)cc4)N(C)C)CC3)C2)c(C)c1C (centres unmarked) [Example 418]	51	98
COc1cc(C)c(S(=O)(=O)N(CCOCC(=O)NC2CCC(C(c3cccc(F)c3)N(C)C)CC2)Cc2ccccc2)c(C)c1C (centres unmarked) [Example 419]	53	76
COc1cc(C)c(S(=O)(=O)N(C)CCOCC(=O)NC2CCC(C(c3ccc(F)cc3)N(C)C)CC2)c(C)c1 (centres unmarked) [Example 422]	43	81
CN(C)C(c1ccc(F)cc1)C1CCC(NC(=O)COC2CCCN(S(=O)(=O)c3ccccc3)C2)CC1 (centres unmarked) [Example 423]	47	95
CN(C)C(c1ccc(F)cc1)C1CCC(CNC(=O)COCC2CCCN(S(=O)(=O)c3ccccc3)C2)CC1 (centres unmarked) [Example 424]	39	96
CN(C)C(c1ccc(Cl)cc1)C1CCC(CCNC(=O)COCC2CCCN(S(=O)(=O)c3ccccc3)C2)CC1 (centres unmarked) [Example 425]	48	97
CN(C)C(c1ccc(Cl)cc1)C1CCC(CCNC(=O)COCCN(Cc2ccccc2)S(=O)(=O)c2ccccc2)CC1 (centres unmarked) [Example 426]	48	95
COc1cc(C)c(S(=O)(=O)N2CCC(OCC(=O)NCC3CCC(C(c4ccc(F)cc4)N(C)C)CC3)C2)c(C)c1C (centres unmarked) [Example 427]	50	94
COc1cc(C)c(S(=O)(=O)N2CCC(OCC(=O)NCC3CCC(C(c4ccc(Cl)cc4)N(C)C)CC3)C2)c(C)c1C (centres unmarked) [Example 428]	49	88
COc1cc(C)c(S(=O)(=O)N2CCN(CCOCC(=O)NCC3CCC(C(c4ccc(Cl)cc4)N(C)C)CC3)CC2)c(C)c1C (centres unmarked) [Example 429]	54	95
COc1ccc(S(=O)(=O)N2CCC(OCC(=O)NCCC3CCC(C(c4ccc(F)cc4)N(C)C)CC3)C2)cc1OC (centres unmarked) [Example 430]	56	92

Structure (SMILES)	μ (binding on the μ opioid receptor, % inhibition) (human μ opiate receptor) [%]	5-HT (inhibition of reuptake of serotonin, % inhibition) [1] [%]
CN(C)C(c1ccc(Cl)cc1)C1CCC(CCNC(=O)COC2CCN(S(=O)(=O)c3cccc(C(F)(F)F)c3)C2)CC1 (centres unmarked) [Example 431]	45	93
Cc1cc(C)c(S(=O)(=O)N2CCC(OCC(=O)NCC3CCC(C(c4ccc(F)cc4)N(C)C)CC3)C2)c(C)c1 (centres unmarked) [Example 432]	56	82
CN(C)C(c1ccc(F)cc1)C1CCC(CNC(=O)COCCN2CCN(S(=O)(=O)c3ccccc3)CC2)CC1 (centres unmarked) [Example 433]	46	95
CCN(CCOCC(=O)NCCC1CCC(C(c2ccc(Cl)cc2)N(C)C)CC1)S(=O)(=O)c1c(C)cc(OC)c(C)c1C (centres unmarked) [Example 434]	46	82
COc1cc(C)c(S(=O)(=O)N2CCCC(OCC(=O)NC3CCC(C(c4ccc(F)cc4)N(C)C)CC3)C2)c(C)c1C (centres unmarked) [Example 435]	48	91
COc1cc(C)c(S(=O)(=O)N(CCOCC(=O)NCCC2CCC(C(c3cccc(F)c3)N(C)C)CC2)Cc2ccccc2)c(C)c1C (centres unmarked) [Example 436]	57	88
CN(C)C(c1ccc(F)cc1)C1CCC(NC(=O)COCCN(C)S(=O)(=O)c2cccc(C(F)(F)F)c2)CC1 (centres unmarked) [Example 438]	51	84
CN(C)C(c1ccc(F)cc1)C1CCC(CNC(=O)COCCN(C)S(=O)(=O)c2ccc(OC(F)(F)F)cc2)CC1 (centres unmarked) [Example 439]	50	94
CN(C)C(c1ccc(Cl)cc1)C1CCC(CCNC(=O)COC2CCN(S(=O)(=O)c3ccc(F)cc3)C2)CC1 (centres unmarked) [Example 440]	47	95
COc1cc(C)c(S(=O)(=O)N2CCC(OCC(=O)NC3CCC(C(c4ccc(F)cc4)N(C)C)CC3)C2)c(C)c1 (centres unmarked) [Example 441]	49	99
CN(C)C(c1ccc(Cl)cc1)C1CCC(CCNC(=O)COCCN(C)S(=O)(=O)c2c(Cl)cc(Cl)cc2Cl)CC1 (centres unmarked) [Example 442]	54	91
CN(C)C(c1ccc(Cl)cc1)C1CCC(CCNC(=O)COC2CCN(S(=O)(=O)c3ccccc3)CC2)CC1 (centres unmarked) [Example 443]	45	96
CN(C)C(c1cccc(F)c1)C1CCC(CCNC(=O)COC2CCN(S(=O)(=O)c3ccccc3)CC2)CC1 (centres unmarked) [Example 444]	56	96
CN(C)C(CCc1ccccc1)C1CCC(CNC(=O)COCCN(C)S(=O)(=O)c2ccc(Cl)cc2)CC1 (centres unmarked) [Example 445]	44	87
CN(C)C(c1ccc(F)cc1)C1CCC(CCNC(=O)COCCN(C)S(=O)(=O)c2ccc(OC(F)(F)F)cc2)CC1 (centres unmarked) [Example 446]	51	90
Cc1ccc(S(=O)(=O)N2CCC(OCC(=O)NCC3CCC(C(c4ccc(F)cc4)N(C)C)CC3)C2)cc1 (centres unmarked) [Example 447]	44	95
Cc1ccc(S(=O)(=O)N(C)CCOCC(=O)NC2CCC(C(c3ccc(F)cc3)N(C)C)CC2)cc1 (centres unmarked) [Example 448]	41	94
COc1cc(C)c(S(=O)(=O)N2CCCC(OCC(=O)NCC3CCC(C(c4ccc(Cl)cc4)N(C)C)CC3)C2)c(C)c1C (centres unmarked) [Example 449]	46	73
